What was measured:
[1] = tested on: rice flat sedge; assay: Test Example 3: herbicidal effect by foliage application, Wagner pot (Table 18, symbol E); assay type: in vivo, rice flat sedge (Cyperus iria); conditions: 320 g/ha
Outline: (§1)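 Plants were sown in alluvial soil held under 0.1–0.5 cm standing water and grown 14 days in a greenhouse at 25–30 °C. An emulsifiable formulation, water-diluted to the set dose, was then sprayed onto the foliage, and effects were scored three weeks later using previously defined criteria.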

[2] = tested on: southern crabgrass; assay: Test Example 5: herbicidal effect by foliage application, plastic box (Table 20, symbol F); assay type: in vivo, southern crabgrass (Digitaria ciliaris)
Outline: (§2)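 Foliar spray test: emulsion formulation diluted in water to a set application rate, sprayed onto 14-day-old plants raised in diluvial soil at 25° C to 30° C under glass. Both herbicidal effect and crop effect rated visually three weeks later.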

[3] = tested on: barnyard grass; assay: Test Example 5: herbicidal effect by foliage application, plastic box (Table 20, symbol H); assay type: in vivo, barnyard grass (Echinochloa crus-galli)
Outline: as §2

[4] = tested on: blackgrass; assay: Test Example 5: herbicidal effect by foliage application, plastic box (Table 20, symbol J); assay type: in vivo, blackgrass (Alopecurus myosuroides)
Outline: as §2

[5] = tested on: windgrass; assay: Test Example 5: herbicidal effect by foliage application, plastic box (Table 20, symbol L); assay type: in vivo, windgrass (Apera spica-venti)
Outline: as §2

[6] = tested on: velvetleaf; assay: Test Example 5: herbicidal effect by foliage application, plastic box (Table 20, symbol M); assay type: in vivo, velvetleaf (Abutilon theophrasti)
Outline: as §2

[7] = tested on: redroot pigweed; assay: Test Example 4: herbicidal effect by soil treatment (Table 19, symbol N); assay type: in vivo, redroot pigweed (Amaranthus retroflexus); conditions: amount of applied herbicide 320 g/ha
Outline: (§3)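 Herbicidal effect was rated 3 weeks after treatment, using the scoring criteria of an earlier test. The compound, formulated as an emulsion and diluted in water to a set herbicide amount, had been sprayed uniformly on soil over freshly sown seeds. Growth took place in a greenhouse at 25° C. to 30° C.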

[8] = tested on: green foxtail; assay: Test Example 5: herbicidal effect by foliage application, plastic box (Table 20, symbol G); assay type: in vivo, green foxtail (Setaria viridis)
Outline: as §2

[9] = tested on: persian speedwell; assay: Test Example 5: herbicidal effect by foliage application, plastic box (Table 20, symbol R); assay type: in vivo, Persian speedwell (Veronica persica)
Outline: as §2

[10] = tested on: green foxtail; assay: Test Example 4: herbicidal effect by soil treatment (Table 19, symbol G); assay type: in vivo, green foxtail (Setaria viridis); conditions: amount of applied herbicide 320 g/ha
Outline: as §3

[11] = tested on: chickweed; assay: Test Example 4: herbicidal effect by soil treatment (Table 19, symbol P); assay type: in vivo, common chickweed (Stellaria media); conditions: amount of applied herbicide 320 g/ha
Outline: as §3

[12] = tested on: chickweed; assay: Test Example 5: herbicidal effect by foliage application, plastic box (Table 20, symbol P); assay type: in vivo, common chickweed (Stellaria media); conditions: amount of applied herbicide 320 g/ha; foliage application after 14-day growth; evaluated three weeks after application
Outline: as §2

[13] = tested on: lambsquarters; assay: Test Example 4: herbicidal effect by soil treatment (Table 19, symbol O); assay type: in vivo, lambsquarters (Chenopodium album); conditions: amount of applied herbicide 320 g/ha
Outline: as §3

[14] = tested on: barnyard grass; assay: Test Example 4: herbicidal effect by soil treatment (Table 19, symbol H); assay type: in vivo, barnyard grass (Echinochloa crus-galli); conditions: amount of applied herbicide 320 g/ha
Outline: as §3

[15] = tested on: barnyard grass; assay: Test Example 3: herbicidal effect by foliage application, Wagner pot (Table 18, symbol H); assay type: in vivo, barnyard grass (Echinochloa crus-galli); conditions: 320 g/ha
Outline: as §1

[16] = tested on: wild oat; assay: Test Example 4: herbicidal effect by soil treatment (Table 19, symbol I); assay type: in vivo, wild oat (Avena fatua); conditions: amount of applied herbicide 320 g/ha
Outline: as §3

[17] = tested on: wild oat; assay: Test Example 5: herbicidal effect by foliage application, plastic box (Table 20, symbol I); assay type: in vivo, wild oat (Avena fatua)
Outline: as §2

[18] = tested on: blackgrass; assay: Test Example 4: herbicidal effect by soil treatment (Table 19, symbol J); assay type: in vivo, blackgrass (Alopecurus myosuroides); conditions: amount of applied herbicide 320 g/ha
Outline: as §3

[19] = tested on: southern crabgrass; assay: Test Example 4: herbicidal effect by soil treatment (Table 19, symbol F); assay type: in vivo, southern crabgrass (Digitaria ciliaris); conditions: amount of applied herbicide 320 g/ha
Outline: as §3

[20] = tested on: persian speedwell; assay: Test Example 4: herbicidal effect by soil treatment (Table 19, symbol R); assay type: in vivo, Persian speedwell (Veronica persica); conditions: amount of applied herbicide 320 g/ha
Outline: as §3

[21] = tested on: Chinese sprangletop; assay: Test Example 3: herbicidal effect by foliage application, Wagner pot (Table 18, symbol D); assay type: in vivo, chinese sprangletop (Leptochloa chinensis); conditions: 320 g/ha
Outline: as §1

[22] = tested on: Italian ryegrass; assay: Test Example 4: herbicidal effect by soil treatment (Table 19, symbol K); assay type: in vivo, Italian ryegrass (Lolium multiflorum); conditions: amount of applied herbicide 320 g/ha
Outline: as §3

[23] = tested on: lambsquarters; assay: Test Example 5: herbicidal effect by foliage application, plastic box (Table 20, symbol O); assay type: in vivo, lambsquarters (Chenopodium album)
Outline: as §2

[24] = tested on: windgrass; assay: Test Example 4: herbicidal effect by soil treatment (Table 19, symbol L); assay type: in vivo, windgrass (Apera spica-venti); conditions: amount of applied herbicide 320 g/ha
Outline: as §3

[25] = tested on: redroot pigweed; assay: Test Example 5: herbicidal effect by foliage application, plastic box (Table 20, symbol N); assay type: in vivo, redroot pigweed (Amaranthus retroflexus); conditions: amount of applied herbicide 320 g/ha; foliage application after 14-day growth; evaluated three weeks after application
Outline: as §2

[26] = tested on: velvetleaf; assay: Test Example 4: herbicidal effect by soil treatment (Table 19, symbol M); assay type: in vivo, velvetleaf (Abutilon theophrasti); conditions: amount of applied herbicide 320 g/ha
Outline: as §3

[27] = tested on: Italian ryegrass; assay: Test Example 5: herbicidal effect by foliage application, plastic box (Table 20, symbol K); assay type: in vivo, Italian ryegrass (Lolium multiflorum)
Outline: as §2

[28] = tested on: Japanese bulrush; assay: Test Example 1: herbicidal activity, application before weed generation under submerged conditions (Table 16, symbol B); assay type: in vivo, Japanese bulrush (Schoenoplectus juncoides); conditions: amount of applied herbicide 320 g/ha
From the text: (§4) [Test Example 1] Herbicidal Activity Test by Application before Weed Generation under Submerged Conditions After alluvial soil was placed into 1/10000 are of Wagner pot, water was poured and mixed to form a submerged condition having a water depth of 4 cm. Seeds of late watergrass, Japanese bulrush, and oval-leafed pondweed were sowed in a mixed manner in the aforementioned pot, and then 2.5 leaf stage rice plant seedlings were transplanted thereto. On the day of sowing seeds, the emulsion agent of the compound of the present invention prepared according to Formulation Example 2 was diluted with water so as to achieve a predetermined herbicide amount, and the diluted emulsion agent was applied to the surface of the water. The pot was placed in a greenhouse at 25° C. to 30° C. for growth of the plants. Three weeks after the herbicide application, the effect of the herbicide on each plant was evaluated according to the following criteria. Evaluation Criteria 5: Herbicidal rate of 90% or more (almost completely withered) 4: Herbicidal rate of 70% or more and less than 90% 3: Herbicidal rate of 40% or more and less than 70% 2: Herbicidal rate of 20% or more and less than 40% 1: Herbicidal rate of 5% or more and less than 20% 0: Herbicidal rate of 5% or less (almost no effect)

[29] = tested on: late watergrass; assay: Test Example 1: herbicidal activity, application before weed generation under submerged conditions (Table 16, symbol A); assay type: in vivo, late watergrass (Echinochloa oryzicola); conditions: amount of applied herbicide 320 g/ha
From the text: as §4

[30] = amount of applied herbicide 320 g/ha, foliage application after 14-day growth, evaluated three weeks after application
[31] = foliage application, 320 g/ha, three weeks after application

## COc1cc(F)ccc1-c1sc2cc(Cl)c(Cl)cc2c1-c1c(O)c(C)nn(C)c1=O [5-051]
[1]
  herbicidal effect on rice flat sedge (E): 3 (Herbicidal rate of 40% or more and less than 70%)
[2]; [30]
  Herbicidal effect by foliage application, F: southern crabgrass: 2 (Herbicidal rate of 20% or more and less than 40%)
[3]; [30]
  Herbicidal effect by foliage application, H: barnyard grass: 3 (Herbicidal rate of 40% or more and less than 70%)
[4]; [30]
  Herbicidal effect by foliage application, J: blackgrass: 5 (Herbicidal rate of 90% or more (almost completely withered))
[5]; [30]
  Herbicidal effect by foliage application, L: windgrass: 4 (Herbicidal rate of 70% or more and less than 90%)
[6]; [30]
  Herbicidal effect by foliage application, M: velvetleaf: 5 (Herbicidal rate of 90% or more (almost completely withered))
[7]
  N: redroot pigweed, herbicidal effect grade: 1 (Herbicidal rate of 5% or more and less than 20%)
[8]; [30]
  Herbicidal effect by foliage application, G: green foxtail: 4 (Herbicidal rate of 70% or more and less than 90%)
[9]; [30]
  Herbicidal effect by foliage application, R: persian speedwell: 3 (Herbicidal rate of 40% or more and less than 70%)
[10]
  G: green foxtail, herbicidal effect grade: 2 (Herbicidal rate of 20% or more and less than 40%)
[11]
  P: chickweed, herbicidal effect grade: 1 (Herbicidal rate of 5% or more and less than 20%)
[12]
  Herbicidal effect by foliage application, P: chickweed: 5 (Herbicidal rate of 90% or more (almost completely withered))
[13]
  O: lambsquarters, herbicidal effect grade: 4 (Herbicidal rate of 70% or more and less than 90%)
[14]
  H: barnyard grass, herbicidal effect grade: 0 (Herbicidal rate of 5% or less (almost no effect))
[15]
  herbicidal effect on barnyard grass (H): 4 (Herbicidal rate of 70% or more and less than 90%)
[16]
  I: wild oat, herbicidal effect grade: 0 (Herbicidal rate of 5% or less (almost no effect))
[17]; [30]
  Herbicidal effect by foliage application, I: wild oat: 0 (Herbicidal rate of 5% or less (almost no effect))
[18]
  J: blackgrass, herbicidal effect grade: 0 (Herbicidal rate of 5% or less (almost no effect))
[19]
  F: southern crabgrass, herbicidal effect grade: 0 (Herbicidal rate of 5% or less (almost no effect))
[20]
  R: persian speedwell, herbicidal effect grade: 0 (Herbicidal rate of 5% or less (almost no effect))
[21]
  herbicidal effect on Chinese sprangletop (D): 3 (Herbicidal rate of 40% or more and less than 70%)
[22]
  K: Italian ryegrass, herbicidal effect grade: 0 (Herbicidal rate of 5% or less (almost no effect))
[23]; [30]
  Herbicidal effect by foliage application, O: lambsquarters: 3 (Herbicidal rate of 40% or more and less than 70%)
[24]
  L: windgrass, herbicidal effect grade: 0 (Herbicidal rate of 5% or less (almost no effect))
[25]
  Herbicidal effect by foliage application, N: redroot pigweed: 3 (Herbicidal rate of 40% or more and less than 70%)
[26]
  M: velvetleaf, herbicidal effect grade: 0 (Herbicidal rate of 5% or less (almost no effect))
[27]; [30]
  Herbicidal effect by foliage application, K: Italian ryegrass: 0 (Herbicidal rate of 5% or less (almost no effect))

## COc1cc2sc(-c3ccccc3OC)c(-c3c(O)c(C)nn(C)c3=O)c2cc1Cl [5-068]
[1]
  herbicidal effect on rice flat sedge (E): 1 (Herbicidal rate of 5% or more and less than 20%)
[2]; [31]
  herbicidal effect on southern crabgrass (F): 1 (Herbicidal rate of 5% or more and less than 20%)
[3]; [31]
  herbicidal effect on barnyard grass (H): 3 (Herbicidal rate of 40% or more and less than 70%)
[4]; [31]
  herbicidal effect on blackgrass (J): 0 (Herbicidal rate of 5% or less (almost no effect))
[5]; [31]
  herbicidal effect on windgrass (L): 0 (Herbicidal rate of 5% or less (almost no effect))
[6]; [31]
  herbicidal effect on velvetleaf (M): 1 (Herbicidal rate of 5% or more and less than 20%)
[8]; [31]
  herbicidal effect on green foxtail (G): 3 (Herbicidal rate of 40% or more and less than 70%)
[9]; [31]
  herbicidal effect on persian speedwell (R): 2 (Herbicidal rate of 20% or more and less than 40%)
[15]
  herbicidal effect on barnyard grass (H): 4 (Herbicidal rate of 70% or more and less than 90%)
[17]; [31]
  herbicidal effect on wild oat (I): 0 (Herbicidal rate of 5% or less (almost no effect))
[28]
  Herbicidal effect, B: Japanese bulrush: 5 (Herbicidal rate of 90% or more (almost completely withered))
[21]
  herbicidal effect on Chinese sprangletop (D): 0 (Herbicidal rate of 5% or less (almost no effect))
[29]
  Herbicidal effect, A: late watergrass: 0 (Herbicidal rate of 5% or less (almost no effect))
[23]; [31]
  herbicidal effect on lambsquarters (O): 3 (Herbicidal rate of 40% or more and less than 70%)
[27]; [31]
  herbicidal effect on Italian ryegrass (K): 0 (Herbicidal rate of 5% or less (almost no effect))
